Literature values as cited in US20190328656A1, “TARGETED DELIVERY OF PROGESTINS AND ESTROGENS VIA VAGINAL RING DEVICES FOR FERTILITY CONTROL AND HRT PRODUCTS” (Evestra, Inc., priority 2018, published 2019).

Tests used:
[1] = compared to estriol
[2] = elimination from the blood stream

## C[C@]12CC[C@@H]3c4ccc(O)cc4CC[C@H]3[C@@H]1[C@@H](O)[C@@H](O)[C@@H]2O [Estetrol]
[1]
  estrogenic activity: very weak estrogenic activity

## C[C@]12CC[C@@H]3c4ccc(O)cc4CC[C@H]3[C@@H]1CC[C@@H]2O [17-beta estradiol]
[2]
  half-life: around 1 hour
